Results reported in the supplement of paper PMC12463676, “Small-molecule dissolution of stress granules by redox modulation benefits ALS models” (Nature Chemical Biology, 2025).

Assays:
[1] = compound: O=[As]([O-])(O)O.[K+] [potassium arsenate]; test: thermal stability z-score vs DMSO; higher = more thermally stabilized by treatment; details: HeLa; arsenate concentration 1 mM
Description: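 Cellular thermal proteome profiling in HeLa cells treated with 1 mM arsenate for 1 h (DMSO pretreatment), heated to ten temperatures (37-66.3 °C). Soluble protein was quantified by TMT mass spectrometry relative to DMSO controls; the thermal stability score was transformed to a z-score; mean of n = 3 experiments.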

[2] = compound: NC(=O)CCCCC1CCSS1 [lipoamide]; test: as above; details: HeLa, lipoamide concentration 100 µM
Description: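 Cellular thermal proteome profiling in HeLa cells. Cells were treated with 100 µM lipoamide for 1 h, with or without 1 mM arsenate for a further 1 h, then heated to ten temperatures (37-66.3 °C), and soluble protein was quantified by TMT mass spectrometry relative to 0.1% DMSO controls. The thermal stability score (sum of log2 fold changes minus the abundance score) was transformed to a z-score; mean of n = 3 experiments.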

[3] = arsenate co-treatment: 1 mM arsenate 1 h
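Note: each temperature applied for 3 min, abundance score taken as mean log2 fold change at the two lowest temperatures, z-score obtained by mean subtraction and division by SD.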

Sequence of UniProt Q13356 (Q13356 whole entry): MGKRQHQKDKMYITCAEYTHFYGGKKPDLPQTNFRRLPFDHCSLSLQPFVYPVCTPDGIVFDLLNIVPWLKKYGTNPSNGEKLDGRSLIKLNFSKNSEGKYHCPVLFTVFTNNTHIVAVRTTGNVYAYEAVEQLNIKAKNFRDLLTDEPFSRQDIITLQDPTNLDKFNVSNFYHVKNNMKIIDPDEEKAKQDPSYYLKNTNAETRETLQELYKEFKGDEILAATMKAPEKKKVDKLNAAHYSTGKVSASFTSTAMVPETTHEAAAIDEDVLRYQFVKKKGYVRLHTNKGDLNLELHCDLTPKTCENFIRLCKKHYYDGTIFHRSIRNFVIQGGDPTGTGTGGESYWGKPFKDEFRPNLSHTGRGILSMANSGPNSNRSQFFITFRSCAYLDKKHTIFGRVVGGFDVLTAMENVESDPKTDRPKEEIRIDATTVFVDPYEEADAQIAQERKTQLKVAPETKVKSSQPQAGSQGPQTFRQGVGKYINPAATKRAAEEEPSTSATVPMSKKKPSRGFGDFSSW
Sequence of UniProt Q15165 (Q15165 whole entry): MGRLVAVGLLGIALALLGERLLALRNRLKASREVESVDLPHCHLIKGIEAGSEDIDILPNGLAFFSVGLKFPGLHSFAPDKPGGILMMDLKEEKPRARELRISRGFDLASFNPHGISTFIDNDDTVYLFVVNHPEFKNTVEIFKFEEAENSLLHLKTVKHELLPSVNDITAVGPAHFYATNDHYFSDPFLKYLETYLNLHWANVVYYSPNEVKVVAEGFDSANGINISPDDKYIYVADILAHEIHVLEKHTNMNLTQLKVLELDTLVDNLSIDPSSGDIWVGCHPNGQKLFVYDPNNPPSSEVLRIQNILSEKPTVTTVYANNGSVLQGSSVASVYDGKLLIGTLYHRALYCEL
Sequence of UniProt O43314 (O43314 whole entry): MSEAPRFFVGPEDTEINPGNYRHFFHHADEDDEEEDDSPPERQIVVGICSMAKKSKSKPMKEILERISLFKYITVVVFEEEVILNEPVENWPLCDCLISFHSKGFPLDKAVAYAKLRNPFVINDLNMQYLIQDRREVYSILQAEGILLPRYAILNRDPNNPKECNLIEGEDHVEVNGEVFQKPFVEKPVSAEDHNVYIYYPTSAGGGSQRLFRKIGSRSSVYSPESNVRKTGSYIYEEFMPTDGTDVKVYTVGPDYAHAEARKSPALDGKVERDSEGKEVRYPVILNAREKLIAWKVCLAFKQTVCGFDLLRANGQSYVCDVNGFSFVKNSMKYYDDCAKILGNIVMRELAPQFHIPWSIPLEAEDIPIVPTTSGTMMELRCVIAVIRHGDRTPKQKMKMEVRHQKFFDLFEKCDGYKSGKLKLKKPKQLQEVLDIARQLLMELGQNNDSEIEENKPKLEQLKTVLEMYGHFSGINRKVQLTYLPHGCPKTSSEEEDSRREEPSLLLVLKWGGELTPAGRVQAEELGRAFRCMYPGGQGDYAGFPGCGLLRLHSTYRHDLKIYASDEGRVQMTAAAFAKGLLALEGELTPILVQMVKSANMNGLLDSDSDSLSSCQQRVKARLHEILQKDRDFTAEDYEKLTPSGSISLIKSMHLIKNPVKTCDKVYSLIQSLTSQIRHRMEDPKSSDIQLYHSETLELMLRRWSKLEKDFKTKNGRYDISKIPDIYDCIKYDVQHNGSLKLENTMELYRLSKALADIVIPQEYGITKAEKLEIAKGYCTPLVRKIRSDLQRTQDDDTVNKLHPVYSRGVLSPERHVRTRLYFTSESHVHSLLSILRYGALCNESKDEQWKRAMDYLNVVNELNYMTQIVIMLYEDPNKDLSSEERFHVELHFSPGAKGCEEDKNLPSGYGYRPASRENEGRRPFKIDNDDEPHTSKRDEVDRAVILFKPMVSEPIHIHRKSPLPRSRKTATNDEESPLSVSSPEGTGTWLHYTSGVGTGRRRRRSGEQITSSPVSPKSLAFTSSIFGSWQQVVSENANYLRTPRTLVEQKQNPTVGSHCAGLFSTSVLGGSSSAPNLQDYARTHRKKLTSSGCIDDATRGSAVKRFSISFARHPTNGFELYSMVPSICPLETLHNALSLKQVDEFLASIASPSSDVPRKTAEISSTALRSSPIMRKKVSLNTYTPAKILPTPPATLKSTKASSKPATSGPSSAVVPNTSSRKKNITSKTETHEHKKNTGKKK
Sequence of UniProt O75817 (O75817 whole entry): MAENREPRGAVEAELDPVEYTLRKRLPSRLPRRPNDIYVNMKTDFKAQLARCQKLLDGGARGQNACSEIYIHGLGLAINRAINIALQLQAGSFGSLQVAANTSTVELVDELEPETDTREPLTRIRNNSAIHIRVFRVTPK
Sequence of UniProt Q6PFW1 (Q6PFW1 whole entry): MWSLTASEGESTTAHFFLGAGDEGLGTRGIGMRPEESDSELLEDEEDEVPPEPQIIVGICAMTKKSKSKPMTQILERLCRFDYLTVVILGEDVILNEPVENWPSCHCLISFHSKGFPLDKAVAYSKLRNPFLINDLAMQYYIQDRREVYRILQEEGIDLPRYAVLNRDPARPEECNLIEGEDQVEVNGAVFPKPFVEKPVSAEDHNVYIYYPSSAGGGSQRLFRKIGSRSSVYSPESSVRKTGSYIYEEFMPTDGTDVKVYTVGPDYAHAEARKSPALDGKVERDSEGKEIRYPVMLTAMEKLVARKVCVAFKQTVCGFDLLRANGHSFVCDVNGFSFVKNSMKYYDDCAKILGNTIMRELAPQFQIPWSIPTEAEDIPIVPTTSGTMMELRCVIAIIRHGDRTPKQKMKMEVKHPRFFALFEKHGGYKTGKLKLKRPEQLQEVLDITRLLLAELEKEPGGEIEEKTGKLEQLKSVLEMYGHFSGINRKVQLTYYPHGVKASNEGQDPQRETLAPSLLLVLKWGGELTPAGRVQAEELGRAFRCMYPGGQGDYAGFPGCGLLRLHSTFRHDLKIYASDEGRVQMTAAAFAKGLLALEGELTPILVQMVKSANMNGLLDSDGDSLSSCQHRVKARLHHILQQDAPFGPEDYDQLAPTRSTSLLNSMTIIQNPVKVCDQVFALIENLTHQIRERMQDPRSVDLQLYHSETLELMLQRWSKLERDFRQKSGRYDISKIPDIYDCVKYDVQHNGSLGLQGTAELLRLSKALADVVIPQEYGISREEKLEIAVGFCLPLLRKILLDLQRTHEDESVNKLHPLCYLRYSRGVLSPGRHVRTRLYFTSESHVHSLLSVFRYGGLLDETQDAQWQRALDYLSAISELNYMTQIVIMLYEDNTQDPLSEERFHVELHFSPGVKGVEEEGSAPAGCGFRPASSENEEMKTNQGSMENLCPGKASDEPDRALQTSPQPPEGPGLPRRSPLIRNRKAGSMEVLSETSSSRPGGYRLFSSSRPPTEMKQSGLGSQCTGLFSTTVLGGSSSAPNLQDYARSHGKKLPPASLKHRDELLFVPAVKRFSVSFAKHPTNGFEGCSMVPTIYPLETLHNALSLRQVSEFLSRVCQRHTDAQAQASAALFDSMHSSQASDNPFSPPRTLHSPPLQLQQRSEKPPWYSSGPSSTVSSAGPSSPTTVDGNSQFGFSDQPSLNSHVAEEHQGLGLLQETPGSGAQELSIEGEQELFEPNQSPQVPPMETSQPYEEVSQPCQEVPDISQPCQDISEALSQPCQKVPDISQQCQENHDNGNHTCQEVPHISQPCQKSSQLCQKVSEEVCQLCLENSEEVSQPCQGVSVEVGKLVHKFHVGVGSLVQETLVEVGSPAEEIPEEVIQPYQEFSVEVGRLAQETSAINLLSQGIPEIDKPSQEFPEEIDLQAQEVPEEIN
Sequence of UniProt O43447 (O43447 whole entry): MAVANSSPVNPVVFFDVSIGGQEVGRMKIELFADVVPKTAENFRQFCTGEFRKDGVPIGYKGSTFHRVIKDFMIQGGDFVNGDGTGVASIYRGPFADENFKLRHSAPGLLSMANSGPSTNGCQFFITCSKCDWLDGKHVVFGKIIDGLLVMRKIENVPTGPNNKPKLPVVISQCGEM
Sequence of UniProt Q9Y3C6 (Q9Y3C6 whole entry): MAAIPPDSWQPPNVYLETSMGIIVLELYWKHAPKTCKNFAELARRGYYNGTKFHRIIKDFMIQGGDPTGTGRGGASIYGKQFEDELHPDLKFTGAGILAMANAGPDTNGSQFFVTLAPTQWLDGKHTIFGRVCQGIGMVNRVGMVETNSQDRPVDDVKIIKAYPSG
Sequence of UniProt P30405 (P30405 whole entry): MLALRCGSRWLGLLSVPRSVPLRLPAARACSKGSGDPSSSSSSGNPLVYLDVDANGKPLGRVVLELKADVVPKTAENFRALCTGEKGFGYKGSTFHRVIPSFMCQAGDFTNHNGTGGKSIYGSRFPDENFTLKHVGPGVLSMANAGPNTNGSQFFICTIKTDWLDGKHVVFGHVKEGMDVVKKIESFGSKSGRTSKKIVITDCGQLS
Sequence of UniProt Q8NEY8 (Q8NEY8 whole entry): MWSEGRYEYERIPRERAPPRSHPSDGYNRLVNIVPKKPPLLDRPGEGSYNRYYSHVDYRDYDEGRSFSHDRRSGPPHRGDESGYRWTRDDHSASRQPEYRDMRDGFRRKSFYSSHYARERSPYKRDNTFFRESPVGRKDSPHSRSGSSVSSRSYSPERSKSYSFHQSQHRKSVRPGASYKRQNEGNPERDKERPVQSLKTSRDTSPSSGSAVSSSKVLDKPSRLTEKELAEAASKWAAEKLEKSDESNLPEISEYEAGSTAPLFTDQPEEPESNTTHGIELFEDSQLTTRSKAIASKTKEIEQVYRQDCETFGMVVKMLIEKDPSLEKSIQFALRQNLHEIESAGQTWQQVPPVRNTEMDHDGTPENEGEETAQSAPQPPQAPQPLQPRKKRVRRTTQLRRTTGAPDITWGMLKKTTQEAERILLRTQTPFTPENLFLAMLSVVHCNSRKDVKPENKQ
Sequence of UniProt Q9UNP9 (Q9UNP9 whole entry): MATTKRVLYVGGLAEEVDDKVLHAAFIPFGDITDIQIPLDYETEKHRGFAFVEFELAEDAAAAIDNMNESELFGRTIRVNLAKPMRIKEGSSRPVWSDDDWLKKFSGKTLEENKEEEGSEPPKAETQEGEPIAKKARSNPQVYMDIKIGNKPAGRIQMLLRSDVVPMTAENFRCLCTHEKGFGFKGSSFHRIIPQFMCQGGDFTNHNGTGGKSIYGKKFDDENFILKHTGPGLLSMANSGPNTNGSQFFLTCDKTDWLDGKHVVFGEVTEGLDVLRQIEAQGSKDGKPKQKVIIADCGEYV

Row | Target | thermal stability z-score [1] | thermal stability z-score [2, 3] | thermal stability z-score ([2]; arsenate co-treatment: none)
1 | PON2 (UniProt Q15165) | 0.478 | -4.17 | -3.42
2 | POP1 (UniProt Q99575) | -0.401 | -0.557 | -0.523
3 | POP4 (UniProt O95707) | -0.193 | 0.462 | 0.069
4 | POP5 (UniProt Q969H6) | -0.617 | -0.5 | -0.587
5 | POP7 (UniProt O75817) | 0.592 | -0.211 | 0.214
6 | POR (UniProt P16435) | 1.03 | -0.215 | -0.028
7 | POU2F1 (UniProt P14859) | 0.0127 | -0.0121 | -0.303
8 | PPA1 (UniProt Q15181) | -0.342 | 1.07 | 0.424
9 | PPA2 (UniProt Q9H2U2) | -0.244 | -1.03 | -0.335
10 | PPAN (UniProt Q9NQ55) | -0.33 | 0.703 | -0.582
11 | PPAT (UniProt Q06203) | -0.0713 | 0.306 | 0.28
12 | PPCS (UniProt Q9HAB8) | -0.328 | -0.183 | 0.122
13 | PPFIA1 (UniProt Q13136) | 0.263 | -0.28 | -0.239
14 | PPFIBP1 (UniProt Q86W92) | 0.32 | -0.215 | 0.229
15 | PPHLN1 (UniProt Q8NEY8) | -0.137 | 0.687 | 0.672
16 | PPIA (UniProt P62937) | -0.295 | 0.27 | 0.693

Row | Target | thermal stability z-score [1] | thermal stability z-score [2, 3] | thermal stability z-score ([2]; arsenate co-treatment: none)
17 | PPIB (UniProt P23284) | 0.559 | -3.74 | -2.72
18 | PPID (UniProt Q08752) | 0.368 | 0.244 | -0.234
19 | PPIE (UniProt Q9UNP9) | 0.128 | 0.246 | 0.0366
20 | PPIF (UniProt P30405) | 0.0382 | 0.26 | 0.29
21 | PPIH (UniProt O43447) | -0.183 | 0.218 | -0.34
22 | PPIL1 (UniProt Q9Y3C6) | -0.489 | -0.0684 | -0.42
23 | PPIL2 (UniProt Q13356) | -0.223 | 0.057 | -0.0266
24 | PPIL3 (UniProt Q9H2H8) | -0.32 | -0.0679 | 0.0318
25 | PPIL4 (UniProt Q8WUA2) | -0.913 | -0.441 | -0.236
26 | PPIP5K1 (UniProt Q6PFW1) | 0.125 | -0.0717 | 0.0968
27 | PPIP5K2 (UniProt O43314) | -0.606 | 0.258 | 0.00428
28 | PPL (UniProt O60437) | 0.125 | -0.117 | -0.141
29 | PPM1A (UniProt P35813) | -0.154 | 0.622 | 0.096
30 | PPM1B (UniProt O75688) | 0.179 | 0.109 | 0.277
31 | PPM1F (UniProt P49593) | -0.617 | -0.361 | -0.757
